Experimental data reported in the PolyMetriX glass transition set.
± gives the standard deviation of the reports.

Legend:
[1] = not given; remark: listed apart in the source

Row | glass transition temperature | glass transition temperature [1] | SMILES
1 | 285.40 °C |  | *C(=O)Nc1ccc2ccccc2c1-c1c(NC(=O)c2ccc3c(c2)C(=O)N(c2ccc(Cc4ccc(N5C(=O)c6ccc(*)cc6C5=O)cc4)cc2)C3=O)ccc2ccccc12 (repeat unit)
2 | 200.00 °C |  | *C1=C(Cl)C(=O)N(c2ccc(Cc3ccc(N4C(=O)C(Cl)=C(Oc5c(Cl)cc(C(C)(C)c6cc(Cl)c(*)c(Cl)c6)cc5Cl)C4=O)cc3)cc2)C1=O (repeat unit)
3 | 385.00 °C |  | *C(=O)c1ccc2c(c1)C(=O)N(c1c(C)cc(CC)c(N3C(=O)c4ccc(*)cc4C3=O)c1CC)C2=O (repeat unit)
4 | 223.00 °C |  | *C(=O)c1ccc2c(c1)C(=O)N(c1cc(N3C(=O)c4ccc(*)cc4C3=O)ccc1OCC(F)(F)C(F)(F)C(F)(F)C(F)(F)C(F)(F)C(F)(F)C(F)(F)F)C2=O (repeat unit)
5 | 400.00 °C |  | *c1ccc(-c2ccc(N3C(=O)c4cc5c(cc4C3=O)C(c3ccccc3)(C(F)(F)F)c3cc4c(cc3O5)C(=O)N(*)C4=O)cc2OC(F)(F)F)c(OC(F)(F)F)c1 (repeat unit)
6 | 274.00 °C |  | *Oc1ccc2ccccc2c1-c1c(Oc2ccc3c(c2)C(=O)N(c2ccc(Oc4ccc(N5C(=O)c6ccc(*)cc6C5=O)cc4)cc2)C3=O)ccc2ccccc12 (repeat unit)
7 | 239.00 °C |  | *Oc1cccc(C(=O)c2ccc(Oc3ccc4c(c3)C(=O)N(c3cccc(N5C(=O)c6ccc(*)cc6C5=O)c3)C4=O)cc2)c1 (repeat unit)
8 | 163.00 °C |  | *C1=C(Cl)C(=O)N(c2cccc(N3C(=O)C(Cl)=C(Oc4ccc(C(C)(C)c5ccc(*)cc5)cc4)C3=O)c2)C1=O (repeat unit)
9 | 375.00 °C |  | *c1ccc(-c2ccc(N3C(=O)c4cc5c(cc4C3=O)C(C(F)(F)F)(C(F)(F)F)c3cc4c(cc3O5)C(=O)N(*)C4=O)cc2OC(F)(F)F)c(OC(F)(F)F)c1 (repeat unit)
10 | 283.00 °C |  | *c1ccc2c(c1)C(=O)N(c1ccc(-c3ccc(N4C(=O)c5ccc(C(*)(C(F)(F)F)C(F)(F)F)cc5C4=O)cc3-c3ccc(C(F)(F)F)cc3)c(-c3ccc(C(F)(F)F)cc3)c1)C2=O (repeat unit)
11 | 285.00 °C |  | *c1ccc2c(c1)C(=O)N(c1ccc(-c3ccc(N4C(=O)c5ccc(C(*)(C(F)(F)F)C(F)(F)F)cc5C4=O)cc3-c3ccc(-c4ccccc4)cc3)c(-c3ccc(-c4ccccc4)cc3)c1)C2=O (repeat unit)
12 | 190.00 °C |  | *CC(N1C(=O)c2ccccc2C1=O)n1c(=O)c2cc3c(=O)n(*)c(=O)c3cc2c1=O (repeat unit)
13 | 243.80 °C |  | *c1ccc2c(c1)C(=O)N(c1ccc(Oc3c(F)c(F)c(Oc4ccc(N5C(=O)c6ccc(C(*)(C(F)(F)F)C(F)(F)F)cc6C5=O)cc4)c(F)c3F)cc1)C2=O (repeat unit)
14 | 319.50 ± 0.7 °C |  | *Sc1ccc2c(c1)C(=O)N(c1ccc(N3C(=O)c4cccc(*)c4C3=O)cc1)C2=O (repeat unit)
15 | 354.00 °C |  | *c1ccc(Cc2ccc(-n3c(=O)c4ccc5c(=O)n(*)c(=O)c5c4c3=O)c(C)c2)cc1C (repeat unit)
16 | 312.00 °C |  | *Oc1c(F)c(F)c(Oc2c(F)c(F)c3c(c2F)C(=O)N(c2ccc(-c4ccc(N5C(=O)c6c(F)c(*)c(F)c(F)c6C5=O)cc4C(F)(F)F)c(C(F)(F)F)c2)C3=O)c(F)c1F (repeat unit)
17 | 375.50 ± 6.4 °C |  | *c1ccc2c(c1)C(=O)N(c1c(F)c(F)c(N3C(=O)c4ccc(C(*)(C(F)(F)F)C(F)(F)F)cc4C3=O)c(F)c1F)C2=O (repeat unit)
18 | 374.50 ± 15 °C |  | *c1ccc2c(c1)C(=O)N(c1c(F)c(F)c(-c3c(F)c(F)c(N4C(=O)c5ccc(C(*)(C(F)(F)F)C(F)(F)F)cc5C4=O)c(F)c3F)c(F)c1F)C2=O (repeat unit)
19 | 274.00 °C |  | *Oc1ccc2c(c1)C(=O)N(c1cc(N3C(=O)c4ccc(*)cc4C3=O)cc(C(F)(F)F)c1)C2=O (repeat unit)
20 | 257.50 ± 11 °C |  | *Sc1ccc2c(c1)C(=O)N(c1cc(Cc3ccc(N4C(=O)c5cccc(*)c5C4=O)c(C)c3)ccc1C)C2=O (repeat unit)
21 | 229.00 °C |  | *C(=O)c1ccc2c(c1)C(=O)N(c1cc(N3C(=O)c4ccc(*)cc4C3=O)ccc1OCC(F)(F)C(F)(F)C(F)(F)C(F)(F)C(F)(F)C(F)(F)F)C2=O (repeat unit)
22 | 135.00 °C |  | *Oc1ccc(C(c2ccc(Oc3cccc4c3C(=O)N(CCCCCCCCN3C(=O)c5cccc(*)c5C3=O)C4=O)cc2)(C(F)(F)F)C(F)(F)F)cc1 (repeat unit)

Row | glass transition temperature | glass transition temperature [1] | SMILES
23 | 216.00 °C |  | *Oc1cccc(S(=O)(=O)c2ccc(Oc3cccc4c3C(=O)N(c3ccc(Oc5cccc(Oc6ccc(N7C(=O)c8cccc(*)c8C7=O)cc6)c5)cc3)C4=O)cc2)c1 (repeat unit)
24 | 289.00 °C |  | *C(=O)c1ccc2c(c1)C(=O)N(c1ccc(C(=O)c3ccccc3N3C(=O)c4ccc(*)cc4C3=O)cc1)C2=O (repeat unit)
25 | 227.00 ± 4.2 °C |  | *Oc1ccc(C(c2ccc(Oc3ccc4c(c3)C(=O)N(c3ccc(Cc5ccc(N6C(=O)c7ccc(*)cc7C6=O)cc5)cc3)C4=O)cc2)(C(F)(F)F)C(F)(F)F)cc1 (repeat unit)
26 | 263.00 °C |  | *c1ccc2c(c1)C(=O)N(c1cc(N3C(=O)c4ccc([Si](*)(C)C)cc4C3=O)cc(C(F)(F)F)c1)C2=O (repeat unit)
27 | 319.00 °C |  | *c1ccc2c(c1)C(=O)N(c1ccc(-c3ccc(N4C(=O)c5ccc(C(*)(C(F)(F)F)C(F)(F)F)cc5C4=O)cc3I)c(I)c1)C2=O (repeat unit)
28 | 394.00 °C |  | *c1c(C)c(C)c(N2C(=O)c3cc4c(cc3C2=O)C(c2ccccc2)(C(F)(F)F)c2cc3c(cc2O4)C(=O)N(*)C3=O)c(C)c1C (repeat unit)
29 | 286.00 °C |  | *c1ccc2c(c1)C(=O)N(c1ccc(-c3ccc(N4C(=O)c5ccc(C(*)(C(F)(F)F)C(F)(F)F)cc5C4=O)cc3-c3ccc(C)cc3)c(-c3ccc(C)cc3)c1)C2=O (repeat unit)
30 | 296.00 °C |  | *c1cccc(C(c2cccc(-n3c(=O)c4cc5c(=O)n(*)c(=O)c5cc4c3=O)c2)(C(F)(F)F)C(F)(F)F)c1 (repeat unit)
31 | 239.00 °C |  | *Oc1cccc(Oc2ccc(Oc3cccc4c3C(=O)N(c3ccc(Oc5ccc(N6C(=O)c7cccc(*)c7C6=O)cc5)cc3)C4=O)cc2)c1 (repeat unit)
32 | 261.00 °C |  | *Oc1ccc2c(c1)C(=O)N(c1ccc(Oc3c(C)cc(Oc4ccc(N5C(=O)c6ccc(*)cc6C5=O)cc4)c(C)c3C)cc1)C2=O (repeat unit)
33 | 249.00 ± 5.7 °C |  | *Oc1ccc2c(c1)C(=O)N(c1ccc(Oc3ccc(Oc4cccc(N5C(=O)c6cccc(*)c6C5=O)c4)cc3)cc1)C2=O (repeat unit)
34 | 365.00 °C |  | *c1ccc2c(c1)C(=O)N(c1cc(C(F)(F)F)c(N3C(=O)c4ccc(C(*)(C(F)(F)F)C(F)(F)F)cc4C3=O)cc1C(F)(F)F)C2=O (repeat unit)
35 | 257.00 °C |  | *C(=O)Oc1ccc2ccccc2c1-c1c(OC(=O)c2ccc3c(c2)C(=O)N(c2ccc(Oc4ccc(N5C(=O)c6ccc(*)cc6C5=O)cc4)cc2)C3=O)ccc2ccccc12 (repeat unit)
36 | 287.00 ± 8.5 °C |  | *Sc1cccc2c1C(=O)N(c1ccc(Oc3ccc(N4C(=O)c5cccc(*)c5C4=O)cc3)cc1)C2=O (repeat unit)
37 |  | 197.50 °C | *Oc1ccc(S(=O)(=O)c2ccc(Oc3ccc(C(c4ccc(*)c(Br)c4)(C(F)(F)F)C(F)(F)F)cc3Br)cc2)cc1 (repeat unit)
38 |  | 112.00 °C | *Oc1ccc(-c2ccc(OC(*)(Oc3ccccc3)Oc3ccccc3)cc2)cc1 (repeat unit)
39 |  | 179.00 °C | *Oc1ccc(C(c2ccc(Oc3ccc(C(=O)c4ccc(C(C)(C)c5ccc(C(=O)c6ccc(*)cc6)cc5)cc4)cc3)cc2)(C(F)(F)F)C(F)(F)F)cc1 (repeat unit)
40 |  | 25.00 °C | *OC(C)COCC(C)OC(=O)c1ccccc1C(*)=O (repeat unit)
41 |  | 61.10 °C | *O[Si](*)(C)CCCOc1ccc(C(=O)OC2CCC3(C)C(=CCC4C3CCC3(C)C(C(C)CCCC(C)C)CCC43)C2)cc1 (repeat unit)
42 |  | 79.00 °C | *Oc1ccc(CC(NC(=O)CCc2ccc(OC(=O)COCC(*)=O)cc2)C(=O)OCC)cc1 (repeat unit)
43 |  | 270.00 °C | *c1cccc(-c2nc3ccc(Oc4ccc5nc(*)c(-c6ccccc6)nc5c4)cc3nc2-c2ccccc2)c1 (repeat unit)
44 |  | 288.00 °C | *C(=O)Nc1ccc(Oc2cccc(Oc3ccc(NC(=O)c4ccc5c(c4)C(=O)N(c4ccc(Oc6ccc(C7(c8ccc(Oc9ccc(N%10C(=O)c%11ccc(*)cc%11C%10=O)cc9)cc8)NC(=O)c8ccccc87)cc6)cc4)C5=O)cc3)c2)cc1 (repeat unit)

Row | SMILES | glass transition temperature | glass transition temperature [1]
45 | *c1cccc(Oc2ccc(P(=O)(c3ccccc3)c3ccc(Oc4ccc(-n5c(=O)c6cc7c(=O)n(*)c(=O)c7cc6c5=O)cc4)cc3)cc2)c1 (repeat unit) | 254.00 °C | 
46 | *CC(*)c1cccc(NC(C)=O)c1 (repeat unit) |  | 163.00 °C
